Laboratory results as given in the OPERA property sets (Mansouri et al. 2018).

`C=C(C)C(C)C` gave a boiling point of 55.6 °C, a log10 vapour pressure (mmHg) of 2.4 and a melting point of -157 °C. `CC(C)NCCO` gave a boiling point of 173 °C and a melting point of 128 °C. For `CC(F)(F)CC(F)(F)F`, the boiling point was 40 °C. In the case of `CCOCCOCC`, the boiling point is reported as 119 °C, the log10 vapour pressure (mmHg) is reported as 1.53 and the melting point is reported as -74 °C. For `CC(=O)[C@H]1CC[C@H]2[C@@H]3CC=C4C[C@@H](O)CC[C@]4(C)[C@H]3CC[C@]12C`, the melting point was 192 °C. `CO[C@H]1[C@H](O)[C@H](O[C@H]2CC[C@@]3(C)[C@H](CC[C@@H]4[C@@H]3CC[C@]3(C)[C@@H](C5=CC(=O)OC5)CC[C@]43O)C2)O[C@@H](C)[C@@H]1O` gave a melting point of 221 °C. For `CC1(C)[C@H]2CC[C@]1(C)C(=O)[C@H]2O`, the melting point was 206 °C. In the case of `O[C@@H]1CCCC[C@H]1O`, the melting point is reported as 102 °C. Compound `CCC(C)C(C)CC(C)C` (centres undefined) has a boiling point of 156 °C. `CCSc1ccc(C)cc1` showed a boiling point of 220 °C. With `Cc1cc(Cc2cc(C)cc(C(C)(C)C)c2O)c(O)c(C(C)(C)C)c1` the melting point was 123 °C and the ready biodegradability was “not readily biodegradable”. For `OCCN1CCN(CCCN2c3ccccc3Sc3ccc(Cl)cc32)CC1`, the melting point was 97 °C. In the case of `CCCCS/C(=N\c1cccnc1)SCc1ccc(C(C)(C)C)cc1`, the melting point is reported as 32 °C. `CN1C(=O)CN=C(c2ccccc2F)c2cc(Cl)ccc21` showed a melting point of 296 °C. `O=C(O)COc1ccc(F)cc1` gave a melting point of 104 °C. In the case of `CCC1NC(=O)c2cc(S(N)(=O)=O)c(Cl)cc2N1` (centres undefined), the melting point is reported as 251 °C. Compound `Nc1ccc(Cl)cn1` has a melting point of 137 °C. `CC(C)OC(=O)C(C)O` (centres undefined) showed a boiling point of 167 °C. Compound `C=CC#CC` has a boiling point of 59.5 °C. For `CCCN(CC1CC1)c1c([N+](=O)[O-])cc(C(F)(F)F)cc1[N+](=O)[O-]`, the log10 Koc (L/kg) was 4.01, the log10 vapour pressure (mmHg) was -4.2 and the melting point was 32.3 °C. With `ClCCCCCCCCCCl` the boiling point was 260 °C. With `O=C(O)COc1ccc(C(=O)c2cccs2)c(Cl)c1Cl` the melting point was 149 °C. Compound `CCc1ccc(O)cc1` has a boiling point of 218 °C, a log10 Henry constant (atm·m³/mol) of -6.11 and a log10 vapour pressure (mmHg) of -1.43. For the same compound, the melting point was 45 °C and the ready biodegradability was “readily biodegradable”. In the case of `C=C(C)C(C)Cl` (centres undefined), the boiling point is reported as 94 °C. With `CC(Oc1c(Cl)cccc1Cl)C1=NCCN1` (centres undefined) the melting point was 127 °C. `Brc1cccc(Br)c1Oc1ccccc1` showed a log10 Koa of 8.12. `O=CC12CC=CCC1C1CC=CCC1O2` (centres undefined) showed a boiling point of 307 °C and a melting point of -80 °C. `CCOP(=S)(NC(C)C)Oc1ccccc1C(=O)OC(C)C` (centres undefined) showed a log10 Koc (L/kg) of 2.78, a log10 vapour pressure (mmHg) of -5.52 and a melting point of -12 °C. In the case of `C=CCC#N`, the boiling point is reported as 119 °C, the log10 vapour pressure (mmHg) is reported as 1.27 and the melting point is reported as -87 °C. `CCCCCCCCCCCCCCCC(=O)NCCO` showed a melting point of 98.5 °C. With `Cn1c([N+](=O)[O-])cnc1/C=C/c1ccnc(N)n1` the melting point was 234 °C. In the case of `CCc1cnc2ccccc2c1`, the boiling point is reported as 266 °C. `CCc1cc2c(cc1C(C)=O)C(C)(C)CCC2(C)C` gave a melting point of 46.5 °C. Work on `CC(C)(C)[C@H](O)/C(=C\c1ccc(Cl)cc1)n1cncn1` yielded a melting point of 153 °C. With `O=S1(=O)CCCO1` the melting point was 31.5 °C and the ready biodegradability was “readily biodegradable”. With `CCOc1ccc(NC(=O)CN)cc1` the melting point was 100 °C. `O=C(O)Cn1c(=O)sc2cccc(Cl)c21` gave a log10 Koc (L/kg) of 1.52, a log10 vapour pressure (mmHg) of -9.12 and a melting point of 193 °C. `Cc1ccnc(-c2cc(C)ccn2)c1` gave a melting point of 175 °C. Compound `CN(C)C(O)=Nc1ccc(-n2nc(C(C)(C)C)oc2=O)c(Cl)c1` has a melting point of 193 °C. Work on `CC(=O)C1CC=C(C)CC1` (centres undefined) yielded a boiling point of 171 °C. For `Nc1ccc(Sc2ccc(N)cc2)cc1`, the boiling point was 361 °C, the log10 Koc (L/kg) was 2.04 and the melting point was 108 °C. For `Nc1c(F)c(F)c(F)c(F)c1F`, the boiling point was 153 °C and the melting point was 35.5 °C. `Cn1cnc2nc(N)[nH]c(=O)c21` showed a melting point of 370 °C. In the case of `CC(C)NCC(O)COc1ccc(COCCOC(C)C)cc1` (centres undefined), the melting point is reported as 100 °C. Work on `CC[N+](C)(CC)CCOC(=O)C(O)(c1ccccc1)C1CCCCC1.[Br-]` (centres undefined) yielded a melting point of 192 °C. For `O=C(c1ccccc1)c1ccccc1C(F)(F)F`, the melting point was 61 °C. Compound `CCCCCCCCCCCCCCCCCCC(=O)O` has a boiling point of 300 °C and a melting point of 69.4 °C. Work on `CCCOC(=O)C(=O)OCCC` yielded a boiling point of 211 °C and a melting point of -44.3 °C. In the case of `CC(=O)C(C)=O`, the boiling point is reported as 88 °C, the log10 Henry constant (atm·m³/mol) is reported as -4.88 and the log10 vapour pressure (mmHg) is reported as 1.75. It also gave a melting point of -1.2 °C. In the case of `FC(F)(F)c1ccc(Br)cc1`, the boiling point is reported as 160 °C. In the case of `CCCCOCC1CO1` (centres undefined), the boiling point is reported as 165 °C, the log10 vapour pressure (mmHg) is reported as 0.505 and the ready biodegradability is reported as “readily biodegradable”. `O=C1c2ccccc2C(=O)N1c1ccccc1` showed a melting point of 210 °C. `CC(=O)Nc1ccc(C)cc1` showed a boiling point of 307 °C and a melting point of 152 °C. Work on `c1ccc(-c2cccnc2)cc1` yielded a boiling point of 272 °C and a melting point of 164 °C. In the case of `CCCCNCC(=O)Nc1c(C)cccc1Cl`, the melting point is reported as 45.5 °C. `C#CCN1C(=O)CN=C(c2ccccc2)c2cc(Cl)ccc21` showed a melting point of 141 °C. In the case of `Nc1c(Cl)c(Cl)nc(C(=O)O)c1Cl`, the log10 Koc (L/kg) is reported as 1.3, the log10 vapour pressure (mmHg) is reported as -10.1 and the melting point is reported as 218 °C. The ready biodegradability was “not readily biodegradable”. Work on `CC(=O)c1ccc(C)nc1` yielded a melting point of 17.6 °C. Work on `Cc1cccc(I)c1` yielded a boiling point of 213 °C and a melting point of -27.2 °C. `Clc1cccc(Cl)c1Cl` gave a boiling point of 218 °C, a log10 Henry constant (atm·m³/mol) of -2.9 and a log10 Koa of 5.19. The log10 Koc (L/kg) was 3.33, the log10 vapour pressure (mmHg) was -0.678 and the melting point was 53.5 °C. The ready biodegradability was “not readily biodegradable”. Work on `CCC(OC(N)=O)C1CCCCC1` (centres undefined) yielded a melting point of 128 °C. `CC(=O)Oc1ccc(OC(C)=O)c(-c2ccccc2)c1` showed a melting point of 68 °C. In the case of `C=CCCCCCCCCC(=O)OC`, the boiling point is reported as 248 °C and the melting point is reported as -27.5 °C. For `O=NN(CCO)CCO`, the ready biodegradability was “readily biodegradable”. Compound `Cc1cccc2c1ccc1c3ccccc3ccc21` has a melting point of 256 °C. In the case of `Clc1ccccc1-c1c(Cl)cccc1Cl`, the log10 Henry constant (atm·m³/mol) is reported as -3.64.
